According to ChEMBL document CHEMBL5291721, “A preclinical secondary pharmacology resource illuminates target-adverse drug reaction associations of marketed drugs” (Nat Commun, 2023):

Legend:
[1] = molecular target: T1, Alpha-2A adrenergic receptor (Homo sapiens, UniProt P08913); type: functional, cell-based
T1 sequence (P08913 whole entry): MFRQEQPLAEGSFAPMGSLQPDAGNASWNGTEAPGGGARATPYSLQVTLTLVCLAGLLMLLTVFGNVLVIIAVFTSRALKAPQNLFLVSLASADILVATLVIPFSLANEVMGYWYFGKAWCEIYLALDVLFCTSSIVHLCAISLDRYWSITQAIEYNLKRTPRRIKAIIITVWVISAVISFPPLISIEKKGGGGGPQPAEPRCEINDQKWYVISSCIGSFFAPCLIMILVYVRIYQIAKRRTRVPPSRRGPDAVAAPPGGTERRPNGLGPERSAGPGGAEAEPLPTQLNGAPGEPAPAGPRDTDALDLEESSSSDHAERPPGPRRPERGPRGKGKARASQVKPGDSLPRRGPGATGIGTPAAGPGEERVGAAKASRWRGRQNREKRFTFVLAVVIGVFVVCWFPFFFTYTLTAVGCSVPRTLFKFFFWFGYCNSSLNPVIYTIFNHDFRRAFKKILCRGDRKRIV

B2 bradykinin receptor = molecular target: T2, B2 bradykinin receptor (Homo sapiens, UniProt P30411)
T2 sequence (P30411 whole entry): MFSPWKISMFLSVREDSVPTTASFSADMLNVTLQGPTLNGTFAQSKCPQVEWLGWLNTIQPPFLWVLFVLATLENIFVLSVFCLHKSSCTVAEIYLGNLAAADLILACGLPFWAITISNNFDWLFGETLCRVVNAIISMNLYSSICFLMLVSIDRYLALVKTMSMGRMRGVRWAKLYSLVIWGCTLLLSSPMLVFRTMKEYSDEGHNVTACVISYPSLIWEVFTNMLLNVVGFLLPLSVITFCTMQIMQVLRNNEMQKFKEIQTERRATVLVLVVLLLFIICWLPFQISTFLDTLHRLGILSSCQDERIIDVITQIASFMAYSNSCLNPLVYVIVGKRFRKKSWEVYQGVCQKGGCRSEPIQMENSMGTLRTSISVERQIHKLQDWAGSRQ

[2] = molecular target: T3, Prostaglandin G/H synthase 1 (Rattus norvegicus, UniProt Q63921); type: functional
T3 sequence (Q63921 whole entry): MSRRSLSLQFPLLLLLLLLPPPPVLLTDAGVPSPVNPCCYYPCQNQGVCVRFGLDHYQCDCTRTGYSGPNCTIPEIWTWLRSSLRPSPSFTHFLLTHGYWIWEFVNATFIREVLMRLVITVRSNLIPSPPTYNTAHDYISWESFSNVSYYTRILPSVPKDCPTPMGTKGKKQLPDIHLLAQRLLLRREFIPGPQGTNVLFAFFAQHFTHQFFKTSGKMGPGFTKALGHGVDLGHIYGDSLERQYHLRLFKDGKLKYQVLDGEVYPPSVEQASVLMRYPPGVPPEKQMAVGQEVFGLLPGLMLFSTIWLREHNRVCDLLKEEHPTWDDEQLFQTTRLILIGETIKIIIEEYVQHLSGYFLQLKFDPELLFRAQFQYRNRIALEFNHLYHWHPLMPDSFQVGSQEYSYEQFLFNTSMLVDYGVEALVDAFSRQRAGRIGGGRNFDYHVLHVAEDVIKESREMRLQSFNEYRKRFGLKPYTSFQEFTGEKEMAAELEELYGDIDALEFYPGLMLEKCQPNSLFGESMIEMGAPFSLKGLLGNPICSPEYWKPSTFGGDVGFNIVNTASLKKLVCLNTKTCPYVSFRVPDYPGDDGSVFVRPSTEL

[3] = molecular target: T4, Muscarinic acetylcholine receptor M2 (Homo sapiens, UniProt P08172); type: functional, cell-based
T4 sequence (P08172 whole entry): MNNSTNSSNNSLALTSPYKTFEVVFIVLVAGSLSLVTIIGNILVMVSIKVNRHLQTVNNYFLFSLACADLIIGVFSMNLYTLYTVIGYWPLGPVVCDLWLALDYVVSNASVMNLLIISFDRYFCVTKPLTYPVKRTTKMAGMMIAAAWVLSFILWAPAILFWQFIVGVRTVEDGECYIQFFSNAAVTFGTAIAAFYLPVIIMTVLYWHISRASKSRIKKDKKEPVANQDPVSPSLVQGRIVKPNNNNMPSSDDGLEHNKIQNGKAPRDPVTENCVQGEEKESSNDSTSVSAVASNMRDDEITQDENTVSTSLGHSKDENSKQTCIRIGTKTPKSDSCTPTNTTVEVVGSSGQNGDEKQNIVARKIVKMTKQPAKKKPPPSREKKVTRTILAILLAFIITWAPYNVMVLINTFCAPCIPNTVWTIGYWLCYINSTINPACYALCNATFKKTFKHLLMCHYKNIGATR

[4] = molecular target: Kappa-type opioid receptor (Homo sapiens, UniProt P41145)
[5] = molecular target: 5-hydroxytryptamine receptor 2B (Homo sapiens, UniProt P41595); type: functional, cell-based
Melanocortin receptor 3 = Melanocortin receptor 3 (Homo sapiens, UniProt P41968)
[6] = molecular target: T5, 5-hydroxytryptamine receptor 2C (Homo sapiens, UniProt P28335)
T5 sequence (P28335 whole entry): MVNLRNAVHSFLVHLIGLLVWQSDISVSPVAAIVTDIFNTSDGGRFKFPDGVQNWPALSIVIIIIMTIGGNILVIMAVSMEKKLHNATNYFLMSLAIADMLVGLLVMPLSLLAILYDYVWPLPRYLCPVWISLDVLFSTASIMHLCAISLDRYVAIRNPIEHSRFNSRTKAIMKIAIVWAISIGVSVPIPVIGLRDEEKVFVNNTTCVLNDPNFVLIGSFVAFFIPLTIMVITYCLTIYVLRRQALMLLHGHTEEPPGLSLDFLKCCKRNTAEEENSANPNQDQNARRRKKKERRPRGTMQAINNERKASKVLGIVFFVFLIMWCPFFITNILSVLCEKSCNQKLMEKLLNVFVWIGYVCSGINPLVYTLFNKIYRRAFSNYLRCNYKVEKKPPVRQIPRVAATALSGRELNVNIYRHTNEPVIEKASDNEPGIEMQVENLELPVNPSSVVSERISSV

[7] = molecular target: 3',5'-cyclic-AMP phosphodiesterase 4D (Homo sapiens, UniProt Q08499); type: functional
Note: assay procedure not described here.

Sequence of Kappa-type opioid receptor (P41145 whole entry): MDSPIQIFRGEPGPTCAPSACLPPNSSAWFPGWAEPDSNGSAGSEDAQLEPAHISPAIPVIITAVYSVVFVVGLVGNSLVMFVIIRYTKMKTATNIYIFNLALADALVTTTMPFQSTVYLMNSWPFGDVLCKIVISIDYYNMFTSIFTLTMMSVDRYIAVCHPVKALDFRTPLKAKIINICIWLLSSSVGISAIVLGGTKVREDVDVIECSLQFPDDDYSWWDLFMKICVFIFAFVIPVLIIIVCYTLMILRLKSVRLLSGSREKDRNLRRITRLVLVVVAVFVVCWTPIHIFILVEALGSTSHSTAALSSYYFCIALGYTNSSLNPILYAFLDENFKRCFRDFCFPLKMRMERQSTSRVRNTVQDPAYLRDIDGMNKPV
Sequence of 5-hydroxytryptamine receptor 2B (P41595 whole entry): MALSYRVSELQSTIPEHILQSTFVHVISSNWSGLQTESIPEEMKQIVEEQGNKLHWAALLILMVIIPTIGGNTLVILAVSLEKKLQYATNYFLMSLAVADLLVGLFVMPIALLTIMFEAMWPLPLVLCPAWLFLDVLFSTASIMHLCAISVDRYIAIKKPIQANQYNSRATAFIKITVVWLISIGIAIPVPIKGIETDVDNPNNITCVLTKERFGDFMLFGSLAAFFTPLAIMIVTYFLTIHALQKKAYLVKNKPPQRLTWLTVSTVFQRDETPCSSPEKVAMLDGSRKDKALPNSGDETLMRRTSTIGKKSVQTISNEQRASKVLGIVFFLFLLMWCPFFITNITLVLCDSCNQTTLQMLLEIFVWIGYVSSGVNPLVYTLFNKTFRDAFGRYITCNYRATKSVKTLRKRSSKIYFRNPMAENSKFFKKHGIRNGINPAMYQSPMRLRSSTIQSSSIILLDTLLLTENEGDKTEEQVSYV
Sequence of 3',5'-cyclic-AMP phosphodiesterase 4D (Q08499 whole entry): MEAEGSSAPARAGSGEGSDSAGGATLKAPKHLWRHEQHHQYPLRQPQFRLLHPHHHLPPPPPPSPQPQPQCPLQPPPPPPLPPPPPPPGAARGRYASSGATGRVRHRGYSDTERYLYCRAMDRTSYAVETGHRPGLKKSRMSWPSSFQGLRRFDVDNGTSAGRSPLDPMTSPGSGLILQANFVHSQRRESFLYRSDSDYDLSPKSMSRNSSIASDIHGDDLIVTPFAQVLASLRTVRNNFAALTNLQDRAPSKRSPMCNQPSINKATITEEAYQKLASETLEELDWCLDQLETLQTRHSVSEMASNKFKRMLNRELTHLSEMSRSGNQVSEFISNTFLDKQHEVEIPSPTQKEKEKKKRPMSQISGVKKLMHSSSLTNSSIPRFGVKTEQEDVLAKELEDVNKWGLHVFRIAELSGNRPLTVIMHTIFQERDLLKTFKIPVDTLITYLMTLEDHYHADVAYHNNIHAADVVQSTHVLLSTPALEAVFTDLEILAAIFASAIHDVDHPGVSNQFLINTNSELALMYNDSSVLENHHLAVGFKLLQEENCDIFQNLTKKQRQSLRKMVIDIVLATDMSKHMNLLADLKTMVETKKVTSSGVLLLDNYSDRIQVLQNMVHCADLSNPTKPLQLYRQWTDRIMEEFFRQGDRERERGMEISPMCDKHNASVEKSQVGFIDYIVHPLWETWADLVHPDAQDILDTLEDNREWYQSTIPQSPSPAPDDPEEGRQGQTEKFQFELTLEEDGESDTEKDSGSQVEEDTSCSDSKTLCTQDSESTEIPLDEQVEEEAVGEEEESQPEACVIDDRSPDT
Sequence of Melanocortin receptor 3 (P41968 whole entry): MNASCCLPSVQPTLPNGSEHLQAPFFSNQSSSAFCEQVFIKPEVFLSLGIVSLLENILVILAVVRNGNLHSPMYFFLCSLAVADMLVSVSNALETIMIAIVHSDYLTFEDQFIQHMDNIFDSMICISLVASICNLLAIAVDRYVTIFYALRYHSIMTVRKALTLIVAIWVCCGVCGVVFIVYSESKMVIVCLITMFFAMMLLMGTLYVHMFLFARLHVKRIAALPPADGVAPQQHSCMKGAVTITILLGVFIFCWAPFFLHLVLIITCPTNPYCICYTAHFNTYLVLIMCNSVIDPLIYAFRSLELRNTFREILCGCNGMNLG

| Structure (SMILES) | AC50 [1] | AC50 (B2 bradykinin receptor) | AC50 [2] | AC50 [3] | AC50 [4] | AC50 [5] | AC50 (Melanocortin receptor 3) | AC50 [6] | AC50 [7] |
| --- | --- | --- | --- | --- | --- | --- | --- | --- | --- |
| OCCN(CCO)c1nc(N2CCCCC2)c2nc(N(CCO)CCO)nc(N3CCCCC3)c2n1 [DIPYRIDAMOLE] | > 10 µM | > 30 µM | > 30 µM | > 30 µM | > 30 µM | > 30 µM | > 30 µM | > 30 µM | 4.5 µM |
| Cc1cnc(Nc2ccc(OCCN3CCCC3)cc2)nc1Nc1cccc(S(=O)(=O)NC(C)(C)C)c1 [FEDRATINIB] | > 10 µM | > 30 µM | > 30 µM | > 10 µM | 15.4 µM | > 10 µM | > 30 µM | > 30 µM | 0.22 µM |
| CC(C)(C)NCC(O)COc1cccc2c1CC(O)C(O)C2 (stereo not drawn) [NADOLOL] | > 10 µM | > 10 µM | > 10 µM | > 10 µM | > 10 µM | > 10 µM | > 10 µM | > 30 µM | > 30 µM |
| CC(=O)N1CCN(c2ccc(OCC3COC(Cn4ccnc4)(c4ccc(Cl)cc4Cl)O3)cc2)CC1 (stereo not drawn) [KETOCONAZOLE] | > 10 µM | > 10 µM | > 10 µM | – | > 10 µM | 15 µM | > 10 µM | > 30 µM | > 10 µM |
| CCN(CC)CC(=O)Nc1c(C)cccc1C [LIDOCAINE] | – | > 30 µM | > 30 µM | – | – | – | 23 µM | – | > 10 µM |
| CC1CC(OC(=O)C(O)c2ccccc2)CC(C)(C)C1 (stereo not drawn) [CYCLANDELATE] | > 10 µM | > 10 µM | > 10 µM | > 10 µM | > 10 µM | > 10 µM | > 10 µM | > 30 µM | > 30 µM |
| CN1CCC(=C2c3ccccc3CC(=O)c3sccc32)CC1 [KETOTIFEN] | > 10 µM | > 10 µM | > 10 µM | 1.9 µM | 5.38 µM | 0.09 µM | > 10 µM | 2.3 µM | > 30 µM |
| CN1C(=O)CN=C(c2ccccc2F)c2cc([N+](=O)[O-])ccc21 [FLUNITRAZEPAM] | > 10 µM | > 30 µM | > 30 µM | > 10 µM | 6.39 µM | > 10 µM | 18.6 µM | > 30 µM | > 30 µM |
| O=C(O[C@H]1C[N+]2(CCCOc3ccccc3)CCC1CC2)C(O)(c1cccs1)c1cccs1 [ACLIDINIUM BROMIDE] | – | > 30 µM | > 30 µM | – | 13.9 µM | – | > 30 µM | > 30 µM | > 30 µM |
| CN1C2CCCC1CC(NC(=O)c1nn(C)c3ccccc13)C2 (stereo not drawn) [GRANISETRON] | > 10 µM | > 30 µM | > 30 µM | > 10 µM | > 10 µM | > 10 µM | > 30 µM | – | > 10 µM |
| COc1nc(C)nc(Cl)c1N=C1NCCN1 [MOXONIDINE] | – | > 30 µM | > 30 µM | > 30 µM | > 30 µM | > 30 µM | > 30 µM | > 30 µM | > 30 µM |
